From ChEMBL document CHEMBL3102815, “Structure Guided Optimization, in Vitro Activity, and in Vivo Activity of Pan-PIM Kinase Inhibitors” (ACS Med Chem Lett, 2013) come the findings set out here.

The target in assay [1] is T1, Serine/threonine-protein kinase pim-3 (Homo sapiens, UniProt Q86V86). Briefly: Inhibition of PIM3 (unknown origin).
Assay [2] has as its target T2, Serine/threonine-protein kinase pim-2 (Homo sapiens, UniProt Q9P1W9).
The target of assay [3] is T3, Serine/threonine-protein kinase pim-1 (Homo sapiens, UniProt P11309).
In assay [4] the target is T3, Serine/threonine-protein kinase pim-1. Briefly: Inhibition of PIM1 (unknown origin) using NH2-AGAGRSRHSSYPAGT-OH as substrate by Kinase-Glo assay. (Kinase-Glo reads ATP consumption through a luciferase reaction.)
The next assay relates to EOL1. Briefly: Antitumor activity against human EOL-1 cells xenografted in po dosed mouse administered daily. It is filed as functional, organism-based. For orientation: In xenograft studies the graft and the host belong to different species.
The target in assay [5] is T1, Serine/threonine-protein kinase pim-3. In words: Inhibition of PIM3 (unknown origin) using NH2-AGAGRSRHSSYPAGT-OH as substrate by Kinase-Glo assay.
Assay [6] has as its target T2, Serine/threonine-protein kinase pim-2. Briefly: Inhibition of PIM2 (unknown origin) using NH2-AGAGRSRHSSYPAGT-OH as substrate by Kinase-Glo assay.
The target of assay [7] is T1, Serine/threonine-protein kinase pim-3. Briefly: Inhibition of PIM3 (unknown origin) using Biotin-AGAGRSRHSSYPAGT-OH as substrate after 2 hrs by AlphaScreen assay.
Assay [8] deals with T2, Serine/threonine-protein kinase pim-2. In words: Inhibition of PIM2 (unknown origin) using Biotin-AGAGRSRHSSYPAGT-OH as substrate after 2 hrs by AlphaScreen assay.
Assay [9] addresses T3, Serine/threonine-protein kinase pim-1. In words: Inhibition of PIM1 (unknown origin) using Biotin-AGAGRSRHSSYPAGT-OH as substrate after 2 hrs by AlphaScreen assay.

Bounds are passed on as bounds.

T3 sequence (P11309 whole entry): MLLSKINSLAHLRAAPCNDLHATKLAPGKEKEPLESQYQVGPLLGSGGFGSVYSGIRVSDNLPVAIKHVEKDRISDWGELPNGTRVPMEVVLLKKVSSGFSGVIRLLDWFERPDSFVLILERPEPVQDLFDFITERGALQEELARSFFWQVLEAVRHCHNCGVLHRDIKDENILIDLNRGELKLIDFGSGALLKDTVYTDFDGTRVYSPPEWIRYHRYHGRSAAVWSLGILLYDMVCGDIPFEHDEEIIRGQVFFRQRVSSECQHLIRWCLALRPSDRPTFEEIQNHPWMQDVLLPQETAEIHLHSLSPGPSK
T2 sequence (Q9P1W9 whole entry): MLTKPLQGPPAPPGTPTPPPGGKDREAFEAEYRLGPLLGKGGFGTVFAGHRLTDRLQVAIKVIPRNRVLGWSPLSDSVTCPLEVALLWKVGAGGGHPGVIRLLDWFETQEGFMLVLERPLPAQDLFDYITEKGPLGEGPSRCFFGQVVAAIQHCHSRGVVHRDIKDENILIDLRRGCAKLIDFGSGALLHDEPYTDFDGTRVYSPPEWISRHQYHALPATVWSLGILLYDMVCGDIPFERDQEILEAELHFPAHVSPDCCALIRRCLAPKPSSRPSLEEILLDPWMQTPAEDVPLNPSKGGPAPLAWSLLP

One may read the Ki as a dissociation constant, usually derived from enzyme kinetics or from competition with a known ligand. In the case of `Nc1ccc(-c2ccccc2C(F)(F)F)nc1C(=O)Nc1cnccc1N1CCC[C@H](N)C1`, the results for the inhibition constant Ki in assay [1], in assay [2] and in assay [3] were 3 nM, 7 nM and 3 nM, respectively.
As for `CC(=O)Nc1nc(C(=O)Nc2cnc(N)nc2N2CCCCC2)cs1`, the Ki in assay [1], in assay [2] and in [3] was over 12500 nM throughout.
Consider `Nc1nccc(-c2ccc(N)c(C(=O)Nc3cnccc3N3CCC[C@H](N)C3)n2)n1`, for which the values for the inhibition constant Ki in assay [1], in assay [2] and in assay [3] were 3 nM, 16 nM and 1 nM, respectively.
For `O=C(Nc1ccccc1N1CCCCC1)c1cscn1` the same measures were over 12500 nM, over 12500 nM and 1800 nM.
The corresponding values for `O=C(Nc1ccccc1N1CCCCC1)c1ncc[nH]1` are over 12500 nM, over 12500 nM and over 12500 nM.
As to `CC(=O)Nc1nc(C(=O)Nc2ccccc2N2CCCCC2)cs1`, the Ki in [1] was 230 nM; in [2] it was over 12500 nM.
In the case of `Nc1nccnc1C(=O)Nc1cnccc1N1CCC[C@H](N)C1`, the inhibition constant Ki came to 20 nM in [1] and 70 nM in assay [2].
For the compound `CC(=O)Nc1nc(C(=O)Nc2cnc(N)cc2N2CCCCC2)cs1`, the figures for the Ki in assay [1], in assay [2] and in [3] were 1700 nM, over 12500 nM and 1000 nM, respectively.
For `CC(=O)Nc1nc(C(=O)Nc2cnccc2N2CCCCC2)cs1` the same measures were 220 nM, over 12500 nM and 61 nM.
In the case of `CC(=O)Nc1nc(C(=O)Nc2ccncc2N2CCCCC2)cs1`, the values for the Ki in [1], in [2] and in assay [3] were 140 nM, 6300 nM and 59 nM, respectively.
For `Nc1ccc(-c2cccnc2)nc1C(=O)Nc1cnccc1N1CCC[C@H](N)C1`, the Ki is 4 nM in [1], 12 nM in assay [2] and under 1 nM in assay [4].
For `Nc1ccc(-c2ccncc2)nc1C(=O)Nc1cnccc1N1CCC[C@H](N)C1` the same measures were 5 nM, 6 nM and under 1 nM.
With `CC(=O)Nc1nc(C(=O)Nc2cncnc2N2CCCCC2)cs1`, the inhibition constant Ki in [1], in assay [2] and in assay [3] was over 12500 nM in each case.
As to `NCC(=O)N1CCN(c2ccncc2NC(=O)c2nccnc2N)CC1`, the inhibition constant Ki in assay [1] is 490 nM; in assay [2], 2000 nM; in assay [3], 122 nM.
`Nc1ccc(-c2ccccn2)nc1C(=O)Nc1cnccc1N1CCC[C@H](N)C1`: the results for the Ki in assay [1], in assay [2] and in assay [4] were 3 nM, 6 nM and under 1 nM, respectively.
Take `C[C@H]1CN(c2ccncc2NC(=O)c2ccc(F)c(-c3c(F)cccc3F)n2)C[C@@H](N)[C@@H]1O`: the Activity result with EOL1 is “Dose-dependent effect”.
For `Nc1cccnc1C(=O)Nc1cnccc1N1CCC[C@H](N)C1`, the inhibitory constant (Ki) in [1] is 20 nM; in assay [2], 110 nM; in assay [3], 18 nM.
In the case of `Nc1cccc(C(=O)Nc2ccccc2N2CCCCC2)n1`, the inhibitory constant (Ki) in assay [1] is 11000 nM; in assay [2], over 12500 nM; in [3] it was 2300 nM.
The corresponding values for `Nc1nccnc1C(=O)Nc1cnccc1N1CCCCC1` are 90 nM, 1600 nM and 30 nM.
For `O=C(Nc1ccccc1N1CCCCC1)c1ncccc1O` the same measures were over 12500 nM, over 12500 nM and 12300 nM.
`Nc1cccnc1C(=O)Nc1ccccc1N1CCCCC1`: the results for the inhibition constant (Ki) in assay [1], in assay [2] and in [3] were 12000 nM, over 12500 nM and 3300 nM, respectively.
Consider `NCCC(=O)N1CCN(c2ccncc2NC(=O)c2nccnc2N)CC1`, for which the Ki is 180 nM in assay [1], 680 nM in assay [2] and 56 nM in assay [3].
In [1], `CN1CCC(CNc2ccc3ncc(-c4cccc(OC(F)(F)F)c4)n3n2)CC1` [SGI-1776] showed a Ki of 24 nM. In other words, the double-digit nanomolar range.
As for `NCC1CCCN(c2ccncc2NC(=O)c2nccnc2N)C1` (racemic), the Ki in assay [1] came to 50 nM; in assay [2] it was 700 nM; in [3], 11 nM.
For `Nc1ccc(Oc2ccccc2)nc1C(=O)Nc1cnccc1N1CCC[C@H](N)C1`, the values for the inhibition constant (Ki) in assay [1], in assay [2] and in [3] were 15 nM, 122 nM and 4 nM, respectively.
Turning to `Nc1ccc(-c2ccccc2Cl)nc1C(=O)Nc1cnccc1N1CCC[C@H](N)C1`, the Ki in [5], in assay [6] and in assay [4] was under 1 nM in each case.
Turning to `COc1ccccc1-c1ccc(N)c(C(=O)Nc2cnccc2N2CCC[C@H](N)C2)n1`, the Ki was 8 nM in assay [2], under 1 nM in assay [5] and under 1 nM in assay [4].
For `Nc1ccc(-c2c(F)cccc2F)nc1C(=O)Nc1cnccc1N1CC[C@@H](O)[C@H](N)C1`, the values for the Ki in [1], in assay [2] and in [3] were 0.007 nM, 0.006 nM and 0.002 nM, respectively.
Regarding `Nc1nccnc1C(=O)Nc1ccccc1N1CCCCC1`, the inhibition constant (Ki) in [1] stood at 1500 nM; in assay [2], 7000 nM; in assay [3] it was 460 nM.
As to `Nc1nccnc1C(=O)Nc1cnccc1N1CCNCC1`, the Ki in assay [1] is 1000 nM; in assay [2], over 12500 nM; in assay [3] it was 810 nM.
Regarding `Nc1ccc(-c2c(F)cccc2F)nc1C(=O)Nc1cnccc1N1CCC[C@H](N)C1`, the inhibition constant Ki in assay [7] was 0.006 nM; in [8] it was 0.004 nM; in assay [9], 0.002 nM.
